Test results reported in ChEMBL document CHEMBL1649160, “ST-246 antiviral efficacy in a nonhuman primate monkeypox model: determination of the minimal effective dose and human dose justification” (Antimicrob Agents Chemother, 2009).

How the values were obtained:
[1] = Cmax in monkeypox virus infected cynomolgus monkey at 30 mg/kg, po qd for 14 days administered under fed condition measured after 7 days; format: ADME, organism-based, Macaca fascicularis; design: dose 30 mg/kg, route oral; details: in vivo
[2] = Cmax in human at 6.7 mg/kg, po qd for 6 days administered under fed condition measured after 6 days; format: ADME, organism-based; design: dose 6.7 mg/kg, route oral; details: in vivo
[3] = AUC (0 to 24 hrs) in human at 6.7 mg/kg, po qd for 21 days administered under fed condition measured after 21 days; format: ADME, organism-based; design: time < 24 hr, dose 6.7 mg/kg, route oral; details: plasma
[4] = AUC (0 to 24 hrs) in human at 6.7 mg/kg, po administered as single dose under fed condition measured after 1 day; format: ADME, organism-based; design: time < 24 hr, dose 6.7 mg/kg, route oral; details: plasma
[5] = Cmax in human at 13.3 mg/kg, po qd qd for 6 days administered under fed condition measured after 6 days; format: ADME, organism-based; design: dose 13.3 mg/kg, route oral; details: in vivo
[6] = Cmax in human at 4.2 mg/kg, po qd for 6 days administered under fed condition measured after 6 days; format: ADME, organism-based; design: dose 4.2 mg/kg, route oral; details: in vivo
[7] = AUC (0 to 24 hrs) in human at 4.2 mg/kg, po qd for 6 days administered under fed condition measured after 6 days; format: ADME, organism-based; design: time < 24 hr, dose 4.2 mg/kg, route oral; details: plasma
[8] = Cmax in human at 6.7 mg/kg, po qd for 21 days administered under fed condition measured after 21 days; format: ADME, organism-based; design: dose 6.7 mg/kg, route oral; details: in vivo
[9] = AUC (0 to 24 hrs) in monkeypox virus infected cynomolgus monkey at 30 mg/kg, po qd for 14 days administered under fed condition measured after 7 days; format: ADME, organism-based, Macaca fascicularis; design: time < 24 hr, dose 30 mg/kg, route oral; details: plasma
[10] = Cmax in monkeypox virus infected cynomolgus monkey at 10 mg/kg, po qd for 14 days administered under fed condition measured after 14 days; format: ADME, organism-based, Macaca fascicularis; design: dose 10 mg/kg, route oral; details: in vivo
[11] = AUC (0 to 24 hrs) in monkeypox virus infected cynomolgus monkey at 20 mg/kg, po administered as single dose under fed condition measured after 1 day; format: ADME, organism-based, Macaca fascicularis; design: time < 24 hr, dose 20 mg/kg, route oral; details: plasma
[12] = Cmax in human at 13.3 mg/kg, po administered as single dose under fed condition measured after 1 day; format: ADME, organism-based; design: dose 13.3 mg/kg, route oral; details: in vivo
[13] = Cmax in human at 6.7 mg/kg, po administered as single dose under fed condition measured after 1 day; format: ADME, organism-based; design: dose 6.7 mg/kg, route oral; details: in vivo
[14] = AUC (0 to 24 hrs) in monkeypox virus infected cynomolgus monkey at 10 mg/kg, po qd for 14 days administered under fed condition measured after 7 days; format: ADME, organism-based, Macaca fascicularis; design: time < 24 hr, dose 10 mg/kg, route oral; details: plasma
[15] = Cmax in monkeypox virus infected cynomolgus monkey at 10 mg/kg, po administered as single dose under fed condition measured after 1 day; format: ADME, organism-based, Macaca fascicularis; design: dose 10 mg/kg, route oral; details: in vivo
[16] = AUC (0 to 24 hrs) in monkeypox virus infected cynomolgus monkey at 30 mg/kg, po administered as single dose under fed condition measured after 1 day; format: ADME, organism-based, Macaca fascicularis; design: time < 24 hr, dose 30 mg/kg, route oral; details: plasma
[17] = Cmax in human at 13.3 mg/kg, po qd for 21 days administered under fed condition measured after 21 days; format: ADME, organism-based; design: dose 13.3 mg/kg, route oral; details: in vivo
[18] = Cmax in monkeypox virus infected cynomolgus monkey at 20 mg/kg, po administered as single dose under fed condition measured after 1 day; format: ADME, organism-based, Macaca fascicularis; design: dose 20 mg/kg, route oral; details: in vivo
[19] = AUC (0 to 24 hrs) in monkeypox virus infected cynomolgus monkey at 10 mg/kg, po qd for 14 days administered under fed condition measured after 14 days; format: ADME, organism-based, Macaca fascicularis; design: time < 24 hr, dose 10 mg/kg, route oral; details: plasma
[20] = Cmax in human at 4.2 mg/kg, po administered as single dose under fed condition measured after 1 day; format: ADME, organism-based; design: dose 4.2 mg/kg, route oral; details: in vivo
[21] = AUC (0 to 24 hrs) in human at 13.3 mg/kg, po administered as single dose under fed condition measured after 1 day; format: ADME, organism-based; design: time < 24 hr, dose 13.3 mg/kg, route oral; details: plasma
[22] = AUC (0 to 24 hrs) in human at 6.7 mg/kg, po qd for 6 days administered under fed condition measured after 6 days; format: ADME, organism-based; design: time < 24 hr, dose 6.7 mg/kg, route oral; details: plasma
[23] = AUC (0 to 24 hrs) in monkeypox virus infected cynomolgus monkey at 30 mg/kg, po qd for 14 days administered under fed condition measured after 14 days; format: ADME, organism-based, Macaca fascicularis; design: time < 24 hr, dose 30 mg/kg, route oral; details: plasma
[24] = AUC (0 to 24 hrs) in monkeypox virus infected cynomolgus monkey at 10 mg/kg, po administered as single dose under fed condition measured after 1 day; format: ADME, organism-based, Macaca fascicularis; design: time < 24 hr, dose 10 mg/kg, route oral; details: plasma
[25] = AUC (0 to 24 hrs) in human at 13.3 mg/kg, po qd for 21 days administered under fed condition measured after 21 days; format: ADME, organism-based; design: time < 24 hr, dose 13.3 mg/kg, route oral; details: plasma
[26] = Cmax in human at 4.2 mg/kg, po qd for 21 days administered under fed condition measured after 21 days; format: ADME, organism-based; design: dose 4.2 mg/kg, route oral; details: in vivo
[27] = AUC (0 to 24 hrs) in human at 13.3 mg/kg, po qd for 6 days administered under fed condition measured after 6 days; format: ADME, organism-based; design: time < 24 hr, dose 13.3 mg/kg, route oral; details: plasma
[28] = Cmax in monkeypox virus infected cynomolgus monkey at 10 mg/kg, po qd for 14 days administered under fed condition measured after 7 days; format: ADME, organism-based, Macaca fascicularis; design: dose 10 mg/kg, route oral; details: in vivo
[29] = Cmax in monkeypox virus infected cynomolgus monkey at 30 mg/kg, po administered as single dose under fed condition measured after 1 day; format: ADME, organism-based, Macaca fascicularis; design: dose 30 mg/kg, route oral; details: in vivo
[30] = Cmax in monkeypox virus infected cynomolgus monkey at 30 mg/kg, po qd for 14 days administered under fed condition measured after 14 days; format: ADME, organism-based, Macaca fascicularis; design: dose 30 mg/kg, route oral; details: in vivo
[31] = AUC (0 to 24 hrs) in human at 4.2 mg/kg, po qd for 21 days administered under fed condition measured after 21 days; format: ADME, organism-based; design: time < 24 hr, dose 4.2 mg/kg, route oral; details: plasma
[32] = AUC (0 to 24 hrs) in human at 4.2 mg/kg, po administered as single dose under fed condition measured after 1 day; format: ADME, organism-based; design: time < 24 hr, dose 4.2 mg/kg, route oral; details: plasma

SMILES: O=C(NN1C(=O)[C@@H]2[C@@H]3C=C[C@@H]([C@H]4C[C@@H]34)[C@@H]2C1=O)c1ccc(C(F)(F)F)cc1 [TECOVIRIMAT]
- Cmax [1]: 1510 ng/mL
- Cmax [2]: 1300 ng/mL
- AUC at 24 h [3]: 16200 ng·h/mL
- AUC(0-t) at 24 h [4]: 13100 ng·h/mL
- Cmax [5]: 2340 ng/mL
- Cmax [6]: 1210 ng/mL
- AUC at 24 h [7]: 11900 ng·h/mL
- Cmax [8]: 1460 ng/mL
- AUC at 24 h [9]: 20700 ng·h/mL
- Cmax [10]: 1080 ng/mL
- AUC(0-t) at 24 h [11]: 18400 ng·h/mL
- Cmax [12]: 2280 ng/mL
- Cmax [13]: 1390 ng/mL
- AUC at 24 h [14]: 12600 ng·h/mL
- Cmax [15]: 1010 ng/mL
- AUC(0-t) at 24 h [16]: 18100 ng·h/mL
- Cmax [17]: 2440 ng/mL
- Cmax [18]: 1260 ng/mL
- AUC at 24 h [19]: 13500 ng·h/mL
- Cmax [20]: 985 ng/mL
- AUC(0-t) at 24 h [21]: 21000 ng·h/mL
- AUC at 24 h [22]: 15400 ng·h/mL
- AUC at 24 h [23]: 15800 ng·h/mL
- AUC(0-t) at 24 h [24]: 13700 ng·h/mL
- AUC at 24 h [25]: 22700 ng·h/mL
- Cmax [26]: 1100 ng/mL
- AUC at 24 h [27]: 23400 ng·h/mL
- Cmax [28]: 1020 ng/mL
- Cmax [29]: 1150 ng/mL
- Cmax [30]: 1190 ng/mL
- AUC at 24 h [31]: 10100 ng·h/mL
- AUC(0-t) at 24 h [32]: 9100 ng·h/mL
